Experimental data: patent US20240374626A1, “METHODS OF ENHANCING MILK PRODUCTION IN LACTATING MAMMALIAN SUBJECTS” (priority 2023, published 2024)

Tested on: Wee1
Test: Contralateral intraductal injection: Wee1 expression in whole MG tissue by RT-qPCR
Assay type: in vivo, mouse
Conditions: IDI of doxorubicin into pregnant MG vs contralateral DMSO
Method: Nulliparous analysis was performed using adult (10-12-week-old) female mice. For timed pregnancies and lactation analysis, CD-1 pregnant adult females were obtained from Charles Rivers. Embryos were examined at the time of mammary gland harvesting to confirm pregnancy state. […] Plugged mice were considered to be PD0.5 on the day of the observed plug. All females used in this study were age matched.
Mice were anesthetized with isoflurane (VetOne, 501017) Prior to intraductal injections, hair was removed from around the nipples using Nair hair remover. Injections into the duct of the nipple were performed with 33 G needles (Hamilton, 7803-05) and a volume of 40 μl per gland. […]
For RNA isolation from FACS purified populations, mammary gland cell suspensions were blocked using Mouse BD Fc Block™ (BD Biosciences) for 10 min. […] Total RNA quality was analyzed by agarose gel electrophoresis and quantified using an ND-1000 spectrophotometer (NanoDrop). cDNA was prepared from 500-1000 ng of total RNA using iScript cDNA synthesis kit (Bio-Rad, 1708841). Quantitative RT-qPCR was performed in triplicates using SsoAdvanced Universal SYBR Green Supermix, (Bio-Rad, 1725272). […]

COc1cccc2c1C(=O)c1c(O)c3c(c(O)c1C2=O)C[C@@](O)(C(=O)CO)C[C@@H]3O[C@H]1C[C@H](N)[C@H](O)[C@H](C)O1 [doxorubicin]
Wee1 expression in whole MG tissue, RT-qPCR: upregulated
